One may read the logD as the decadic logarithm of the distribution of all forms, ionised or not, between an organic phase and buffer at a given pH. A high value points to higher lipophilicity.

Entries after “also recorded” stand apart in the source; their conditions may differ. Positions of bridges follow the written chain, without caps; N, C: chain ends. Residues, ends and D or L forms follow the SMILES beside them.

Results on one molecule are retold here after paper PMC4806491, “The milk-derived fusion peptide, ACFP, suppresses the growth of primary human ovarian cancer cells by regulating apoptotic gene expression and signaling pathways” (BMC Cancer, 2016).

Data set [1] in a line: oil (octanol)/water partition coefficient. The format is physicochemical. The settings on record: pH 7, preliminary experiments.
Data set [2] relates to normal ovarian glandular epithelium cells (NOGECs). Briefly: WST-1 viability assay, general toxicity. The settings on record: WST-1, compared with paclitaxel, Fig. 3b, cells from 7 patients. The format is cell-based, human. Here is the method: Fresh primary ovarian tumor tissues that were assessed and classified as serous ovarian adenocarcinoma (III-IV grade) according to WHO criteria were collected from 53 ovarian cancer patients who underwent initial debulking surgery at the first affiliated hospital of Anhui Medical University between June 2012 and June 2014. All patients had not received adjuvant therapies, such as chemotherapy or radiotherapy, prior to surgery. For comparison, normal ovarian glandular epithelium cells (NOGECs) were cultured from fresh primary normal ovarian tissues harvested from 7 patients with uterine fibromas, which were confirmed as negative for any neoplastic disease by pathological examination. […] To determine purity, cells were analyzed using immunofluorescence of cytokeratin 7 (for ovarian cancer cells) or cytokeratin 19 (for normal ovarian epithelium cells).
Primary ovarian cancer cells were seeded into 96-well plates in sextuplicate at a starting density of 5 × 10^3 cells/well and incubated with ACFP at the concentrations: 0 (as control), 5 × 10^−6, 5 × 10^−5, 5 × 10^−4, 5 × 10^−3, 5 × 10^−2, 5 × 10^−1 and 5 g/L for 24, 48 and 72 h, respectively. […] Cell viability was later measured using the WST-1 (water-soluble tetrazolium 1) cell viability and cytotoxicity assay kit (Beyotime, Haimen, China) according to the manufacturer’s instructions. […]

The next data set can be described thus: stability in pH 7 water. Conditions: n=3, Figure S2. Format: physicochemical.
Data set [3] deals with primary ovarian cancer cells. Briefly: Real time PCR of bcl-xl, bax, akt, caspase-3, CDC25C and cyclinB1 mRNA. The format is cell-based, human. Conditions: increasing concentration, 48 h, 2^-ΔΔCt, β-actin reference, 12 patients. The text has this:
An optimized RT-PCR protocol was employed to analyze the mRNA levels of bcl-xl, bax, akt, caspase-3, CDC25C and cyclinB1. Beta-actin was used as a housekeeping gene. According to primer sequences of bcl-xl, bax, akt, caspase-3, CDC25C, cyclinB1 and β-actin genes retrieved from Primer-Bank, primers were designed with the Primer 5.0 software, which were synthesized by Shanghai Sangon Biological Engineering Technology. These primer sequences are as follows: • bcl-xl forward 5′-[…]-3′, • bcl-xl reverse 5′-[…]-3′; • bax forward 5′-[…]-3′, • bax reverse 5′-[…]-3′; • akt forward 5′-[…]-3′, • akt reverse 5′-[…]-3′; • caspase-3 forward 5′-[…]-3′, • caspase-3 reverse 5′[…]-3′; • CDC25C forward 5′-[…]-3′, • CDC25C reverse 5′-[…]-3′; • cyclinB1 forward 5′-[…]-3′, • cyclinB1 reverse 5′-[…]-3′; • β-actin forward 5′-[…]-3′, • β-actin reverse 5′-[…]-3′.
Primary ovarian cancer cells were harvested after ACFP treatment at different doses and times, respectively. The total RNAs in the primary ovarian cancer cells were extracted according to the Trizol kit manufacturer’s instructions, and the purity and concentration were determined by ultraviolet spectrophotometry. […]
Real time PCR adopts TaKaRa SYBR Green as real time PCR Master Mix in ABI7500 fluorescent real-time PCR instrument. […] Finally, the relative mRNA expression of all samples were calculated using the 2^-ΔΔCt method. […]
For orientation: Real-time PCR tracks product formation cycle by cycle.

A short description of data set [4]: solubility in water and octanol. Format: physicochemical.

The molecule `CC[C@H](C)[C@@H]1NC(=O)[C@H](CO)NC(=O)[C@@H]2CCCN2C(=O)[C@H](C)NC(=O)CNC(=O)[C@H](CC(C)C)NC(=O)[C@H](CCCCN)NC(=O)[C@H](CCCCN)NC(=O)[C@H](CCSC)NC(=O)[C@H](CCCNC(=N)N)NC(=O)[C@H](Cc2c[nH]c3ccccc23)NC(=O)[C@H](CCC(N)=O)NC(=O)[C@H](Cc2c[nH]c3ccccc23)NC(=O)[C@H](CCCNC(=N)N)NC(=O)[C@H](CCCNC(=N)N)NC(=O)[C@@H](NC(=O)[C@H](CCCCN)NC(=O)[C@@H](N)Cc2ccccc2)CSSC[C@@H](C(=O)N[C@H](C(=O)N[C@@H](CCCNC(=N)N)C(=O)N[C@@H](CCCNC(=N)N)C(=O)N[C@@H](C)C(=O)N[C@@H](Cc2ccccc2)C(=O)NCC(=O)NCC(=O)NCC(=O)NCC(=O)N[C@@H](CO)C(=O)N2CCC[C@H]2C(=O)NCC(=O)N2CCC[C@H]2C(=O)N[C@H](C(=O)N2CCC[C@H]2C(=O)N[C@@H](CC(N)=O)C(=O)O)[C@@H](C)CC)C(C)C)NC(=O)[C@H]([C@@H](C)O)NC1=O` [ACFP] (H-FKCRRWQWRMKKLGAPSITCVRRAFGGGGSPGPIPN-OH; disulfide 3-20; N-terminus and C-terminus assumed) came in with a logD in data set [1] of -0.91. Also, the “cytotoxicity toward normal primary ovarian cells” value in data set [2] is on record as “little or no cytotoxicity”. For the same molecule, in the data set “stability in pH 7 water”, the stability result is reported as “very stable; also recorded: good stability”. Also, in data set [3], the “mRNA expression of bax and caspase-3” value is listed as “gradual increase”; the “mRNA expression of bcl-xl, akt, CDC25C and cyclinB1” value is reported as “gradually decreased”. In addition, in data set [4], the “solubility in fat (octanol)” value is “slightly soluble” and the solubility in water entry was “easily dissolve”.
